Reference: patent publication US10548829B2, “Oral care compositions and methods of use” (priority 2016, dated 2020)
Like-named read-outs stand apart in the source and are kept apart here.

How the values were obtained:
S. gordonii/S. sobrinus = assay: Growth inhibition (OD610), co-culture; type: cell-based, S. gordonii and S. sobrinus
Description: (§1) Further characterization was performed on planktonic oral microbes; Streptococcus sobrinus (Cariongenic—strain-SL1[CCM 6070, CNCTC 9/89] (ATCC cat. #33478), Streptococcus gordonii (Arginolytic—strain V288 (ATCC cat. #35105), Actinomyces viscosus) as well late colonizer (Gram −), pathogenic Aggregatibacter actinomycetemcomitans. All microbes were grown in their respective culture media: Streptococcus sobrinus and Streptococcus gordonii in BHI broth (BD, cat #237500), Aggregatibacter actinomycetemcomitans in BHI broth supplemented with 0.5% Yeast Extract (BD, cat #210941) and Actinomyces viscosus in Trypticase Soy Broth (BD, cat #211768) supplemented with 0.5% Yeast Extract (BD, cat #210941). Bacteria were cultured overnight in 37° C., 5% CO2 in approximately 20 ml of the appropriate culture broth. The following day, the OD610 was determined and solutions were diluted to 0.2 for the assay.
(§2) Test samples (Naringin, Naringin:Zinc complex and Naringin+Zinc Acetate (combination)) were prepared as a 100 mM stock solution followed by 2 fold serial dilution in 100% DMSO. Triclosan (positive control) was prepared as a 10% stock in 100% EtOH and 3 fold serial dilutions were done in 100% EtOH. […]
(§3) After approximately 12-13 hours of treatment, the plate was read at 610 nm using an Envision plate reader (PerkinElmer, Waltham, Mass.). The % inhibition relative to control was determined as follows: […]

S. gordonii/A. viscosus = assay: Growth inhibition (OD610), co-culture; type: cell-based, S. gordonii and A. viscosus
Description: as §1, §2, §3

[1] = system: mixed culture containing Actinomyces viscosus, Lactobacillus casei, Streptococcus oralis, Fusobacterium nucleatum and Veilonella parvula; assay: Growth inhibition (OD610), mixed chemostat culture; type: cell-based, A. viscosus, L. casei, S. oralis, F. nucleatum, V. parvula; conditions: for % Inhibition: Mixed species incubated in 37° C., 0.0875 mM
Description: Single species of Streptococcus gordonii (S. gordonii, S.g) strain V288 (ATCC #35105), Streptococcus sobrinus (S. sobrinus, S.$) strain SL1[CCM 6070, CNCTC 9/89] (ATCC #33478), or Aggregatibacter actinomycetemcomitans were analyzed. Also, a mixed culture containing Actinomyces viscosus (A. viscosus, A.v) strain (ATCC, #43146), Lactobacillus casei (L. casei, L.c) strain (ATCC #334), Streptococcus oralis (S. oralis, S. o) strain (ATCC #35037), Fusobacterium nucleatum (F. nucleatum, F. n) strain (ATCC #10953), and Veilonella parvula (V. parvula, V. p) strain (ATCC #17745) was also analyzed for growth inhibition/toxicity activity. Bacteria were cultured overnight in approximately 20 ml of BHI broth (BD, cat #237500) or maintained in a specialized complex modified BHI II medium in a continuous culture chemostat at 37° C. respectively. The following day, the OD610 were determined and solutions diluted to an OD610 of 0.2 or 0.1 respectively for the assay.
Triclosan (positive control) was prepared as a 10% stock in 100% EtOH and 3 fold serial dilutions were performed in 100% EtOH. An appropriate amount of the diluted samples was then transferred into a 96 well clear plate such that the resulting final concentration of the test samples ranged from either a 2 mM or 4 mM (highest concentration) to 0.0078 mM or 0.0156 mM (lowest concentration respectively) in 2% DMSO in 100 μl media per well. Triclosan (TCN) ranged from 0.01% to 1.67e-6% in 1% EtOH. For Zinc acetate, in order to mimic the 2:1 molar ratio (ligand:Zinc) in the Naringin:Zinc complex, the final concentration ranged from 0.7 mM to 0.0027 mM for samples with 2 mM as the highest concentration and 1.33 mM to […] for samples with 4 mM as the highest concentration in 2% DMSO. Next, 100 μl of bacterial culture at OD610 0.2 were introduced to the wells with the test samples. The wells were thoroughly mixed and incubated at 37° C. overnight. The plates were read using an Envision plate reader (PerkinElmer, Waltham, Mass.) at 610 nm.
The IC50 for the complex, Product 5, was determined for Streptococcus gordonii (S. gordonii), Streptococcus sobrinus (S. sobrinus), Aggregatibacter actinomycetemcomitans (A. actinomycetemcomitans), and also for the mixed bacterial culture. […] Triclosan (TCN) was included as a positive control for bacterial inhibition.
Antimicrobial characterization was also performed on mixed culture solutions having at least five microbial species present. A mixed culture containing Actinomyces viscosus (A. viscosus, A.v) (ATCC, #43146), Lactobacillus casei (L. casei, L.c) (ATCC #334), Streptococcus oralis (S. oralis, S.o) (ATCC #35037), Fusobacterium nucleatum (F. nucleatum, F.n) (ATCC #10953) and Veilonella parvula (V. parvula, V.p) (ATCC #17745) was maintained in a specialized complex medium (Modified BHI II Medium) in a continuous culture chemostat at 37° C. Approximately 10 ml of the culture was removed and the OD610 was determined. The assay was performed using cultures at two concentrations; 0.03 and 0.1 at OD610. […] Triclosan (positive control) was prepared as a 10% stock in 100% EtOH and 3 fold serial dilutions were performed in 100% EtOH. […] For Zinc Acetate, in order to mimic the 2:1 ratio (ligand:Zinc) composition as in the complex, the final concentration range from 0.7 mM to 0.0027 mM in 2% DMSO was used instead.
A 100 μl of bacterial culture at chosen OD610 (0.03 or 0.1) was introduced into the wells with the test samples. The wells were thoroughly mixed and plates incubated overnight in a 37° C. incubator with or without 5% CO2. After approximately 12-13 hours of treatment, the plate was read using Envision plate reader (Serial #1040984), absorbance at 610 nm. The % inhibition relative to control was determined as described for previously described antimicrobial protocols, supra.

[2] = 0.5 mM (combination 0.5 mM total)

In the case of `CC(=O)[O-].CC(=O)[O-].[Zn+2]` [Zinc Acetate alone, Zinc (II) Acetate], the “% Inhibition” value (S. gordonii/S. sobrinus; 0.175 mM) is reported as 1.55 ± 0.24%, the “% Inhibition” value (S. gordonii/A. viscosus; 0.175 mM) is reported as −0.74 ± 6.34% and the IC50 ([1]; Mixed Species (aerobic)) is reported as “Ambiguous”. The IC50 ([1]; Mixed Species (anaerobic), read-out: IC50) was 250 µM, the “% Inhibition” value ([1]; 5% CO2 (anaerobic)) was −1.46 ± 0.0% and the “% Inhibition” value ([1]; Air (aerobic)) was 18.07 ± 2.65%.
`C[C@@H]1O[C@@H](O[C@H]2[C@H](Oc3cc(O)c4c(c3)O[C@H](c3ccc(O)cc3)CC4=O)O[C@H](CO)[C@@H](O)[C@@H]2O)[C@H](O)[C@H](O)[C@H]1O` [Naringin] showed an inhibition at 500 µM (S. gordonii/S. sobrinus; [2]) of -6.84 ± 1.19% and an inhibition at 500 µM (S. gordonii/A. viscosus; [2]) of -2.39 ± 5.68%.
